pIC50: −log10 of the molar value.

System in the first test: not listed separately
Description: Inhibition of Dengue virus NS5MTase assessed as methylation of 7MeGpppAC5.
For orientation: pIC50 means the IC50 on a negative log10 scale, so that one unit is a factor of ten. As for `Cc1ccc(C23CC4CC(CC(NC(=O)N[C@@H](Cc5ccccc5)C(=O)O)(C4)C2)C3)cc1`, the pIC50 was 4.22.

A further test deals with Dengue virus. Description: Inhibition of Dengue virus NS5MTase assessed as methylation of 7MeGpppAC5 at 100 uM.
A word on the inhibition: it is the percentage by which the read-out fell short of the control. With `C[n+]1cn(CCCCCCn2cc([C@@H](O)c3ccccc3)[n+](C)c2)cc1[C@@H](O)c1ccccc1`, the inhibition stood at 5%.

`CC[C@@H](C)[C@H](NS(=O)(=O)c1ccc(C)cc1)C(=O)Oc1cc2oc(=O)cc(-c3ccccc3)c2cc1Cl`: the inhibition turned out to be 5%.

As to `CC[C@@H](C)[C@H](NS(=O)(=O)c1ccc(C)cc1)C(=O)Oc1ccc2c(-c3ccc(OC)cc3)cc(=O)oc2c1`, the inhibition stood at 5%.

Consider `Cc1cc2oc(=O)cc(COC(=O)CN3C(=O)N[C@]4(C[C@H](C)CC(C)(C)C4)C3=O)c2cc1C(C)C`, for which the inhibition came to 5%.

For the compound `CC[C@@H](C)[C@H](NS(=O)(=O)c1ccc(C)cc1)C(=O)Oc1ccc2c(c1)oc(=O)c1cc(OC)ccc12`, the inhibition stood at 5%.

For the compound `O=C(O)[C@H]1CCCC[C@@H]1C(=O)N[C@H]1CCCC[C@@H]1NC(=O)[C@@H]1CCCC[C@H]1C(=O)O`, the inhibition worked out at 5%.

Regarding `Cc1ccc(S(=O)(=O)N2CCCCC2)cc1NC(=O)COC(=O)CN1C(=O)N[C@@]2(C[C@H](C)CC(C)(C)C2)C1=O`, the inhibition came to 5%.

For the compound `Cc1ccc(C23CC4CC(CC(NC(=O)N[C@@H](Cc5ccccc5)C(=O)O)(C4)C2)C3)cc1`, the inhibition came to 75%.

Consider `CCOC(=O)Cn1c(=O)n(C[C@H]2CC[C@H](C(=O)NCCc3ccccc3)CC2)c(=O)c2ccccc21`, for which the inhibition was determined as 5%.

Consider `O=C(N[C@@H](Cc1ccccc1)C(=O)O)c1ccc(C(=O)N[C@H](Cc2ccccc2)C(=O)O)cc1`, for which the inhibition worked out at 5%.

With `O=C(Oc1cccc(NC2=NS(=O)(=O)c3ccccc32)c1)c1ccc(S(=O)(=O)N2CCCCC2)cc1`, the inhibition came out at 5%.

With `CC(C)[C@@H](N)C(=O)NC[C@H]1CC[C@@H](C(=O)N[C@@H](Cc2ccccc2)C(=O)O)CC1`, the inhibition was found to be 5%.

For the compound `COC(=O)[C@@H](Cc1ccccc1)NC(=O)NC12CC3CC(C1)CC(c1ccc(C)cc1)(C3)C2`, the inhibition was found to be 5%.

On to `CN(C)S(=O)(=O)c1ccc(Cl)c(NC(=O)COC(=O)CNC(=O)CC23CC4CC(CC(C4)C2)C3)c1`, for which the inhibition was determined as 5%.

For `N[C@H](C(=O)O)[C@@H](O)c1ccc(OCc2ccccc2)c(OCc2ccccc2)c1`, the inhibition was 5%.

These data come from ChEMBL document CHEMBL1140515, “Virtual screening and bioassay study of novel inhibitors for dengue virus mRNA cap (nucleoside-2'O)-methyltransferase” (Bioorg Med Chem, 2007).
